Reference: PubChem BioAssay (NCI)
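Values below derive from 48-hour exposures of cells grown in 96-well plates, with endpoints linearly interpolated between the two concentrations bracketing the appropriate inhibition level. Abbreviation: GI50, concentration required for 50% inhibition of growth. TGI: concentration producing complete growth inhibition.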

What was measured:
Experiment in all cases: NCI anticancer screen, dose series, 48 h
OVCAR-3 ovarian = tested on: OVCAR-3 ovarian
SF-268 CNS = tested on: SF-268 CNS
M14 melanoma = tested on: M14 melanoma
SN12C renal = tested on: SN12C renal
NCI-H23 lung = tested on: NCI-H23 lung
SK-MEL-2 melanoma = tested on: SK-MEL-2 melanoma
HS 578T breast = tested on: HS 578T breast
OVCAR-8 ovarian = tested on: OVCAR-8 ovarian
LOX IMVI melanoma = tested on: LOX IMVI melanoma
SK-MEL-28 melanoma = tested on: SK-MEL-28 melanoma

SMILES | GI50 (OVCAR-3 ovarian) [µM] | TGI (OVCAR-3 ovarian) [µM] | GI50 (SF-268 CNS) [µM] | TGI (SF-268 CNS) [µM] | GI50 (M14 melanoma) [µM] | TGI (M14 melanoma) [µM] | GI50 (SN12C renal) [µM] | TGI (SN12C renal) [µM] | GI50 (NCI-H23 lung) [µM] | TGI (NCI-H23 lung) [µM] | GI50 (SK-MEL-2 melanoma) [µM] | TGI (SK-MEL-2 melanoma) [µM] | GI50 (HS 578T breast) [µM] | TGI (HS 578T breast) [µM] | GI50 (OVCAR-8 ovarian) [µM] | TGI (OVCAR-8 ovarian) [µM] | GI50 (LOX IMVI melanoma) [µM] | TGI (LOX IMVI melanoma) [µM] | GI50 (SK-MEL-28 melanoma) [µM] | TGI (SK-MEL-28 melanoma) [µM]
COC(=O)C[C@@H]1CC=CC(=O)/C1=C(O)/C=C/c1ccccc1 | 0.3 | 0.93 | 1.37 | 3.75 | 0.578 | 1.69 | 0.462 | 2.99 | 0.7 | 2.13 | 1.63 | 3.56 | 3.49 | > 49.2 | 0.602 | 3.76 | 0.172 | 0.332 | 1.19 | 2.61
Fc1cccc(-c2nc(-c3c[nH]c4ncccc34)cs2)c1 | 60.5 | > 100 | 38.2 | > 100 | 5.61 | > 100 | > 100 | > 100 | 71.1 | > 100 | > 100 | > 100 | 2.95 | 16.7 | 42.4 | > 100 | > 100 | > 100 | > 100 | > 100
O=CCC(O)C(O)C(O)CO (stereo unspecified) | > 100 | > 100 | > 100 | > 100 | > 100 | > 100 | > 100 | > 100 | > 100 | > 100 | > 100 | > 100 | > 100 | > 100 | > 100 | > 100 | > 100 | > 100 | > 100 | > 100
N#Cc1cc2c(=S)[nH]c(=S)[nH]c2nc1SCc1ccccc1 | 65.5 | > 100 | 30.6 | > 100 | 58.2 | > 100 | 22.7 | > 100 | 32 | > 100 | 66.7 | > 100 | 39.6 | > 100 | 58.1 | > 100 | 17.3 | 43.4 | 69.7 | > 100
NC(=O)/C=C/c1c[nH]c2nccnc12 | – | > 39.5 | – | > 21.9 | – | 30.5 | – | 11.4 | – | 2.74 | – | 3.95 | – | 4.6 | – | > 87.5 | – | 4.63 | – | 4.26
NCCNc1nc2ccc(F)cc2c2c(=O)c3cc(F)ccc3sc12 | 1.63 | 3.15 | 1.62 | 4.47 | 2.77 | 8.65 | 1.68 | 3.29 | 1.65 | 3.18 | 1.95 | 4.28 | 3.21 | 18.4 | 2.06 | 4.6 | 1.72 | 3.13 | 2.05 | 4.18
COc1cc(-c2cn(-c3ccc(F)cc3)c(=O)[nH]2)cc(OC)c1OC | > 100 | > 100 | > 100 | > 100 | > 100 | > 100 | 9.93 | > 100 | > 100 | > 100 | > 100 | > 100 | 50.9 | > 100 | > 100 | > 100 | > 100 | > 100 | > 100 | > 100
COc1ccc(C#CC2=C(Br)C(=O)OC2)cc1 | 1.61 | 7 | 16.9 | > 50 | 10.5 | 34 | 8.83 | 16.9 | 10.6 | 25.3 | 23 | > 50 | 7.43 | 28.2 | 9.47 | 39 | 6.42 | 14 | 5.54 | 23.3
CN1CCN(c2ccc(NC(=O)c3cncnc3Nc3ccc4c(ccn4Cc4cccc(F)c4)c3)cc2)CC1 | 4.08 | 8.48 | 4.3 | 9.17 | 0.616 | 1.22 | 3.83 | 8.15 | 4.35 | 9.14 | 5.2 | 10.7 | 3.63 | 11.8 | 3.8 | 10.6 | 0.591 | 1.16 | 0.533 | 1.01
N#CC1=C(N)Oc2c(ccc3cccnc23)C1c1ccccc1 (stereo unspecified) | – | 2.95 | – | > 100 | – | > 41.5 | – | > 100 | – | > 28.5 | – | > 27 | 1.73 | > 100 | – | > 100 | – | > 100 | – | > 75.5
CCN(CC)CCC(CNc1c(C)cnc2cc(Cl)ccc12)c1ccc(Cl)c(Cl)c1 (stereo unspecified) | 6.81 | 21.1 | 8.3 | 23.8 | 1.82 | 3.63 | 7.67 | 23.7 | 5.62 | 20.6 | 2.67 | 7.73 | 4.26 | 23.1 | 9.89 | 24.9 | 1.59 | 3.14 | 1.97 | 3.83
C=C(C)C1Cc2cc(C(C)=O)ccc2O1 (stereo unspecified) | – | > 100 | – | > 100 | – | > 100 | – | > 100 | – | > 100 | – | > 100 | – | > 100 | – | > 100 | – | > 100 | – | > 100
O=C(O)c1ccccc1C(=O)Nc1cc2c(cc1Br)-c1ccccc1C2=O | – | > 100 | – | > 100 | – | > 100 | – | > 100 | – | > 100 | – | > 100 | – | > 100 | – | > 100 | – | > 100 | – | > 100
Nc1nc(N)c2cc(S(=O)(=O)c3ccccc3)ccc2n1 | 5.68 | > 100 | 3.13 | > 100 | 0.506 | > 100 | 3.21 | > 100 | 3.03 | > 100 | 25.3 | > 100 | 6.93 | > 100 | 1.31 | > 100 | 0.516 | > 100 | 10.6 | > 100
Cc1nc2sc(C(=O)Nc3cccc(Cl)c3C)c(N)c2cc1C(O)c1ccccc1 (stereo unspecified) | 0.0351 | 1.14 | 0.318 | 11.7 | 0.0291 | 13.1 | 0.067 | 6.73 | 0.0634 | 12.9 | 0.0754 | 12.6 | 0.0239 | 0.497 | 0.0512 | 35.3 | 0.0599 | 10.9 | 1.6 | 23.1
CSc1ccc(NC(=O)CCl)cc1 | – | > 10 | – | > 10 | – | 3.73 | – | > 10 | – | > 10 | – | 5.1 | – | > 10 | – | > 10 | – | > 10 | – | > 10
CC(=O)OCCC/C(=C/c1cc2ccccc2c2ccccc12)[N+](=O)[O-] | 0.814 | 2.13 | 1.47 | 2.89 | 1.56 | 2.9 | 1.75 | 3.75 | 1.57 | 3.27 | 1.54 | 2.98 | 2.47 | > 23.1 | 1.61 | 3.21 | 0.423 | 1.08 | 1.64 | 2.99
COc1ccc2c3c1OC1C4(CCC5C(C2)N(CC2CC2)CCC351)OCCO4 (stereo unspecified) | – | > 100 | – | > 100 | – | > 100 | – | > 100 | – | > 100 | – | > 100 | – | > 100 | – | > 100 | – | > 100 | – | > 100
O=C1c2ccccc2-c2c1c1ccc([N+](=O)[O-])cc1c(=O)n2CCN1CCOCC1 | > 100 | > 100 | > 100 | > 100 | > 100 | > 100 | 59.3 | > 100 | > 100 | > 100 | > 100 | > 100 | > 100 | > 100 | > 100 | > 100 | 37.8 | > 100 | > 100 | > 100
C=CC(=O)N1CCC(CNc2ncnc(N)c2-c2ccc(Oc3ccccc3)cc2)CC1 | 27.6 | 85.1 | 26.6 | > 100 | 31.6 | > 100 | 25.2 | > 100 | 29.8 | > 100 | 19.3 | 42 | 24 | 95.2 | 27.5 | > 100 | 16.3 | 33.2 | 34.4 | > 100
COc1ccc2cn3c4ccc(O)cc4[nH]c(=O)c3c2c1 | 0.0474 | 7.08 | 0.217 | 17.5 | 0.08 | 13.7 | 0.267 | 16.2 | 0.402 | 15.7 | 0.0602 | 12.8 | 0.249 | 31.6 | 0.302 | 18.1 | 0.101 | 4.93 | 0.0742 | 17.3
COc1ccc(OC)c(-c2nc3sc(C)cn3c2/C=C2\C(=O)N(C)c3ccccc32)c1 | 23.6 | 62.3 | 19.7 | 63.6 | 25.4 | 80.3 | 20.6 | 50.7 | 24.4 | 59.3 | 15.6 | 43.6 | 23.6 | 70.4 | 28.3 | > 100 | 17.3 | 37.9 | 19.8 | 43.6
Cn1c(=O)c2[nH]c(CCS)nc2n(C)c1=O | – | > 100 | – | > 100 | – | > 100 | – | > 100 | – | > 100 | – | > 100 | – | 99.7 | – | > 100 | – | > 100 | – | > 100
CCOc1cc(CCNC)c2c(ccc3ccc(OC)c(O)c32)c1OC | – | 29.8 | – | 38.3 | – | 28.5 | – | 36.7 | – | 27.1 | – | 34.2 | – | 45 | – | 29.4 | – | 24.2 | – | 37.8
CN1CCC(n2cnc(-c3ccc(F)cc3)c2-c2ccnc(Nc3ccccc3)n2)CC1 | 7.65 | > 25 | 9.91 | > 25 | 5.58 | 14.7 | 7.09 | > 25 | 16.3 | > 25 | 11.3 | > 25 | 11.5 | > 25 | 8.86 | > 25 | 5.78 | > 25 | 5.19 | 11
CCN1Cc2c(/C=C/c3ccccc3)nc3ccc(OC)cc3c2N(c2cccc(Cl)c2)C1 | 1.62 | 3.08 | 1.87 | 3.67 | 2.04 | 4 | 2.43 | 7.82 | 1.67 | 4.2 | 1.72 | 3.56 | 1.75 | 4.88 | 1.84 | 4.29 | 1.7 | 3.51 | 1.78 | 3.28
CCCCc1n(Cc2ccc3ccccc3n2)cc[n+]1Cc1ccc2ccccc2c1 | 0.541 | 2.03 | 0.984 | 2.92 | 0.769 | 2.45 | 0.685 | 2.21 | 0.508 | 3.98 | 0.977 | 2.64 | 1.33 | 4.07 | 1.03 | 3.17 | 0.736 | 1.95 | 0.798 | 2.59
C=C(C)[C@@H]1CC[C@]2(COC(=O)c3ccccc3C(=O)O)CC[C@]3(C)[C@H](CC[C@@H]4[C@@]5(C)CC[C@H](OC(=O)c6ccccc6C(=O)O)C(C)(C)[C@@H]5CC[C@]43C)[C@@H]12 | 17.5 | 49.3 | 26.6 | > 100 | 44.9 | > 100 | 60.8 | > 100 | 42.7 | > 100 | 20.6 | 54.1 | 26.4 | > 100 | 42.6 | > 100 | 24.6 | > 100 | 95.5 | > 100
